The source of these data is article PMC8253220, “Molecular design, synthesis and in vitro biological evaluation of thienopyrimidine–hydroxamic acids as chimeric kinase HDAC inhibitors: a challenging approach to combat cancer” (Journal of Enzyme Inhibition and Medicinal Chemistry, 2021).

Common to all, as to type: biochemical
The subject of one assay is Hela nuclear extracts. In words: Hela nuclear extract HDAC inhibitor assay (BPS Bioscience). The settings on record: 10 µM. Here is the method: The purpose of the study is to determine the effects of twenty compounds from Misr International University on the enzymatic activities of hela nuclear extracts using an in vitro […]
7a Solution 10mM DMSO 10 10 % DMSO in
7b Solution 10mM DMSO 10 10 % DMSO in
7d Solution 10mM DMSO 10 10 % DMSO in
2.3 Experimental Conditions
2.3.1 Enzymes and Substrates
Assay Catalog # Substrate
Hela Nuclear Exctract 50053 10 µM HDAC Substrate 3
For the hela nuclear extracts, hela cells were grown to 90 % confluency. Hela nuclear extracts were prepared from the Nuclear Extraction Kit from abcam (Catalog # ab113474). The final total protein concentration was calculated to be 2.4 µg/µl. From this, the hela nuclear extracts was diluted 20-fold in HDAC assay buffer and 5 µl of the dilution was added to a 50 µl reaction.
The compounds are dissolved in DMSO. A series of dilutions of the compounds were prepared with 10% DMSO in HDAC assay buffer and 5 µl of the dilution was added to a 50 µl reaction so that the final concentration of DMSO is 1 % in all of […]
The enzymatic reactions for the hela nuclear extract were conducted in duplicate at 37 °C for 60 minutes in a 50 µl mixture containing HDAC assay buffer, 5 µg BSA, an HDAC substrate (see 2.3.1), hela nuclear extract, and a test compound (see 2.2).
After enzymatic reactions, 50μl of 2 x HDAC Developer was added to each well for the hela nuclear extract and the plate was incubated at room temperature for an additional 15 […]
Fluorescence intensity was measured at an excitation of 360 nm and an emission of 460 nm using a Tecan Infinite M1000 microplate reader.
Hela nuclear extract activity assays were performed in duplicates at each concentration.
The fluorescent intensity data were analyzed using the computer software, Graphpad Prism. In the absence of the compound, the fluorescent intensity (Ft) in each data set was defined as 100% activity. In the absence of hela nuclear extract, the fluorescent intensity (Fb) in each data set was defined as 0% activity. The percent activity in the presence of each compound was calculated according to the following equation: %activity = (F-Fb)/(Ft-Fb), where F= the fluorescent intensity in the presence of the compound.
The values of percentage activity were plotted on a bar graph.

Another assay has as its target VEGFR-2 (Homo sapiens, UniProt P35968). The experiment in a line: In vitro VEGFR-2 tyrosine kinase inhibitory assay (Z'-LYTE, SelectScreen). The settings on record: for inhibition at 10 µM: 10 µM single dose. As for the experimental part:
The target compounds were evaluated for their in vitro inhibitory activities against EGFR, VEGFR-2, and HDAC6. The EGFR and VEGFR-2 inhibitory assays were performed at Thermo Fischer Scientific, Madison, WI, USA (SelectScreenServices@thermofisher.com). The HDAC inhibitory assays were performed at BPS Bioscience, San Diego, CA, USA (www.bpsbioscience.com). Initially, all of the synthesised target compounds were evaluated for their percent inhibitory activity against EGFR, VEGFR-2, and HDACs at 10 µM single dose concentration, in which their mean percent inhibition is summarised in (Figure 5, Tables 1 and [2]). Representative compounds were evaluated for their percent inhibitory activity against EGFR and VEGFR-2 at 6 different concentrations (0.1 nM, 1 nM, 10 nM, 100 nM, 1 µM, 10 µM) to subsequently calculate their IC50 values (Table 3). Additionally, all of the synthesised target compounds were submitted to the National Cancer Institute “NCI” Bethesda, Maryland, USA (www.dtp.nci.nih.gov), to evaluate theirs in vitro antiproliferative activities against NCI 60- cancer cell line panel.
In vitro enzyme inhibition determination for the synthesised compounds was carried out in Thermo Fischer Scientific, Madison, WI, USA (SelectScreenServices@thermofisher.com). The EGFR and VEGFR-2 tyrosine kinase % inhibitory activity at a single-dose concentration of 10 µM was performed initially then representative compounds were evaluated at single-dose concentrations of (0.1 nM, 1 nM, 10 nM, 100 nM, 1 µM) using ZYLTE technology. A fluorescence-based, coupled-enzyme format is employed in the biochemical assay and depends on the sensitivity of proteolytic cleavage to non-phosphorylated and phosphorylated peptides. Then IC50 values for selected compounds were determined by GraphPad Prism at Misr international university.

The target in another assay is T1, HDAC6 (Homo sapiens, UniProt Q9UBN7).
T1 construct: purchased BPS Bioscience 50006
T1 sequence (Q9UBN7 1-1215): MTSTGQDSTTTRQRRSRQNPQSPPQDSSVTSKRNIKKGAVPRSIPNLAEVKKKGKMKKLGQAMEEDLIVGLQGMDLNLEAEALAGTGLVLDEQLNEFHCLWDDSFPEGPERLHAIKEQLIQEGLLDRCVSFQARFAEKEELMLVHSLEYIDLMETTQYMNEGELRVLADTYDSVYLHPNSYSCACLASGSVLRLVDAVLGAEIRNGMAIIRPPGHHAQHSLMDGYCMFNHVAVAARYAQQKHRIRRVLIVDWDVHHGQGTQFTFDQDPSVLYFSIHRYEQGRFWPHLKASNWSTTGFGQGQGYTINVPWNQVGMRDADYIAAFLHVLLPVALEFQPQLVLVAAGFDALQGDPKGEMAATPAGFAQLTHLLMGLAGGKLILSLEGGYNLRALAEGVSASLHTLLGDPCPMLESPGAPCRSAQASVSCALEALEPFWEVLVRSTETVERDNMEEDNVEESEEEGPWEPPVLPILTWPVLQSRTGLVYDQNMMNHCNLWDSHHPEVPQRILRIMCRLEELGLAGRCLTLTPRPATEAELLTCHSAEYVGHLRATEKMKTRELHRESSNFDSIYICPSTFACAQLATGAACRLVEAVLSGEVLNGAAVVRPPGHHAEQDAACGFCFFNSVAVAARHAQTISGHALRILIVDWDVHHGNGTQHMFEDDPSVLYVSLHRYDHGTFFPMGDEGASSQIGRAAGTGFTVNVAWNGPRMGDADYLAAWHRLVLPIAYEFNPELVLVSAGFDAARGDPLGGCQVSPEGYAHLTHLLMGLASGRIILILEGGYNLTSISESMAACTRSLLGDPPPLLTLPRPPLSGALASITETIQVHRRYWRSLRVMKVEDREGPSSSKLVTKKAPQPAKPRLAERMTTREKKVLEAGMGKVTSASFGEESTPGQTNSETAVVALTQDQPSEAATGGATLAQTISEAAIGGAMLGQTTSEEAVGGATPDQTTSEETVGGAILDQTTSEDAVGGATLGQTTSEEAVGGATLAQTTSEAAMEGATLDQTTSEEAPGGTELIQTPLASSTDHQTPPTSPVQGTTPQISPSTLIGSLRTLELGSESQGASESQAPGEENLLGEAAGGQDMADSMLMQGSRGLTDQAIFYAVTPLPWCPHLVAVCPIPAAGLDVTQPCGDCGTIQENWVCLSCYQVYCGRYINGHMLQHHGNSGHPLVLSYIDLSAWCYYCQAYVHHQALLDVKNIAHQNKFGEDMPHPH
In words: In vitro HDAC6 inhibitory assay (BPS Bioscience, fluorogenic). The settings on record: 10 µM. Here is the method:
(1 picture or pasted object on this page, not shown here)
HDAC activity assays were performed in duplicates at each concentration. The

Sequence of VEGFR-2 (P35968 20-1356): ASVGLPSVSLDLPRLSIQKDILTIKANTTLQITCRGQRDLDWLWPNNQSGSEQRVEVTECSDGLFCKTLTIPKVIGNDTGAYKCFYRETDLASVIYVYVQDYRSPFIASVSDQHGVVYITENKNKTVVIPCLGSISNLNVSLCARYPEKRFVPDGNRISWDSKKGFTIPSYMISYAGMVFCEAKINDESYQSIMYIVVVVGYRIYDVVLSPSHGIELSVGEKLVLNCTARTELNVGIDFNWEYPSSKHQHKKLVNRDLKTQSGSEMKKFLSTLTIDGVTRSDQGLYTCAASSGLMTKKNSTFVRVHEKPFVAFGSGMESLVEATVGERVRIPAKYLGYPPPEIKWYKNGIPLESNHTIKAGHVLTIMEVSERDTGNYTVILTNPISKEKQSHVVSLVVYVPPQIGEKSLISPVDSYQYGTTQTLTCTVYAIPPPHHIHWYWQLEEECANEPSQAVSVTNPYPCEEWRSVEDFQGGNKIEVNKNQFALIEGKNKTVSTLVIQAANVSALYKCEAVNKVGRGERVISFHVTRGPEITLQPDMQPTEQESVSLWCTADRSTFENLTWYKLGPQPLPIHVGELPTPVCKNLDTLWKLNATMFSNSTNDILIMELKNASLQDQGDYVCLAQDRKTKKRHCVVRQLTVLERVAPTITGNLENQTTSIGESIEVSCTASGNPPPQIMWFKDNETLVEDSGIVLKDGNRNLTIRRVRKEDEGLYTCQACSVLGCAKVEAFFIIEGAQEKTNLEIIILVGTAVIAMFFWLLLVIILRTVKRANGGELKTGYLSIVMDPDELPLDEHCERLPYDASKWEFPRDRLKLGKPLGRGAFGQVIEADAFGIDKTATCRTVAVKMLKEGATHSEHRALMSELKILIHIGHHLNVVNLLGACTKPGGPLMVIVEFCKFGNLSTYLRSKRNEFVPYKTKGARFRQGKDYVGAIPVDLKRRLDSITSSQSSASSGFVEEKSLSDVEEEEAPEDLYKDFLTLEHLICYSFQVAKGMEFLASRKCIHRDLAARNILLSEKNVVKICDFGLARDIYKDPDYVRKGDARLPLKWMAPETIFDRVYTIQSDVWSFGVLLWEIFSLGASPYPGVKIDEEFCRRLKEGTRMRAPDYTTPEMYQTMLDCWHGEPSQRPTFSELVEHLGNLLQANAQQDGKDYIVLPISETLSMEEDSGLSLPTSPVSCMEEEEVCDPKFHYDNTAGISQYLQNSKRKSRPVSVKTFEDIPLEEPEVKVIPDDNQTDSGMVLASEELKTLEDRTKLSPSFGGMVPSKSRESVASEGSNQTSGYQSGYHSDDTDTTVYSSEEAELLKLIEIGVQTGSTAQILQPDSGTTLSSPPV

Take `Cc1c(C(=O)NCCC(=O)NO)sc2ncnc(Nc3ccc(NC(=O)Nc4ccccc4)cc3)c12` [Compound 11a, 1–(4-(6-((3-(hydroxyamino)-3-oxopropyl)carbamoyl)-5-methylthieno[2,3-d]pyrimidin-4-ylamino)phenyl)-3-phenylurea]: the “% Inhibition Hela Nuclear Extracts” value in the assay with Hela nuclear extracts was determined as 0%. Further, the inhibition (usually the percentage by which the read-out fell short of the control) at 10 µM against VEGFR-2 was determined as 47%. On HDAC6, the “Mean % inhibition HDAC6” value came to 7% and 10 µM produced 5% inhibition.

Regarding `Cc1c(C(=O)NCCCC(=O)NO)sc2ncnc(Nc3ccc(F)c(Cl)c3)c12` [Compound 20d, 4–(3-chloro-4-fluorophenylamino)-N-(4-(hydroxyamino)-4-oxobutyl)-5-methylthieno[2,3-d]pyrimidine-6-carboxamide], in the assay with Hela nuclear extracts, the “% Inhibition Hela Nuclear Extracts” value worked out at 0%. The molecule also yielded an inhibition at 10 µM on VEGFR-2 of 20%. The “Mean % inhibition HDAC6” value at HDAC6 was found to be 9%.

Consider `Cc1c(C(=O)NCCCC(=O)NO)sc2ncnc(Nc3ccccc3)c12` [Compound 20b, N-(4-(hydroxyamino)-4-oxobutyl)-5-methyl-4-(phenylamino)thieno[2,3-d]pyrimidine-6-carboxamide], for which the “% Inhibition Hela Nuclear Extracts” value in the assay on Hela nuclear extracts amounted to 21%. The inhibition at 10 µM is 25% against VEGFR-2 and 56% against HDAC6.

Turning to `Cc1c(C(=O)NO)sc2ncnc(Nc3ccc(Cl)cc3)c12` [Compound 15c, 4–(4-chlorophenylamino)-N-hydroxy-5-methylthieno[2,3-d]pyrimidine-6-carboxamide], the “% Inhibition Hela Nuclear Extracts” value in the assay with Hela nuclear extracts is 4%. In addition, the inhibition at 0.0001 µM on VEGFR-2 (0.1 nM compound, 10 μM ATP, read-out: % Inhibition mean, KDR (VEGFR2)) stood at 7%. Moreover, the inhibition at 0.001 µM at VEGFR-2 (1 nM compound, 10 μM ATP, read-out: % Inhibition mean, KDR (VEGFR2)) is 4%. Further, at VEGFR-2 (10 nM compound, 10 μM ATP, read-out: % Inhibition mean, KDR (VEGFR2)), the inhibition at 0.01 µM was 7%. For the same molecule, the inhibition at 0.1 µM on VEGFR-2 (100 nM compound, 10 μM ATP, read-out: % Inhibition mean, KDR (VEGFR2)) stood at 15%. At VEGFR-2 (1000 nM compound, 10 μM ATP, read-out: % Inhibition mean, KDR (VEGFR2)), the inhibition at 1 µM stood at 39%. This molecule also registered an inhibition at 10 µM on VEGFR-2 of 87%. For the same molecule, the concentration for half-maximal inhibition (IC50) – broadly, the concentration at which inhibition is half-maximal – on VEGFR-2 (read-out: IC50 in enzyme assays VEGFR-2) was determined as 5.58 µM. On HDAC6, the “Mean % inhibition HDAC6” value is 7% and the inhibition at 10 µM was determined as 9%.

As for `Cc1c(C(=O)NCCC(=O)NO)sc2ncnc(Nc3ccccc3)c12` [Compound 19b, N-(3-(hydroxyamino)-3-oxopropyl)-5-methyl-4-(phenylamino)thieno[2,3-d]pyrimidine-6-carboxamide], the “% Inhibition Hela Nuclear Extracts” value in the assay with Hela nuclear extracts turned out to be 5%. Besides, the values for the inhibition at 10 µM against VEGFR-2 and against HDAC6 were 13% and 10%, respectively.

`COc1cccc(NC(=O)Nc2ccc(Nc3ncnc4sc(C(=O)NCCC(=O)NO)c(C)c34)cc2)c1` [Compound 11b, 1–(4-(6-((3-(hydroxyamino)-3-oxopropyl)carbamoyl)-5-methylthieno[2,3-d]pyrimidin-4-ylamino)phenyl)-3–(3-methoxyphenyl)urea]: the “% Inhibition Hela Nuclear Extracts” value in the assay on Hela nuclear extracts was 4%. At VEGFR-2, this molecule yielded an inhibition at 10 µM of 75%. Further, the “Mean % inhibition HDAC6” value at HDAC6 was 13%.

On to `Cc1c(C(=O)NCCCC(=O)NO)sc2ncnc(Nc3ccc(Cl)cc3)c12` [Compound 20c, 4–(4-chlorophenylamino)-N-(4-(hydroxyamino)-4-oxobutyl)-5-methylthieno[2,3-d]pyrimidine-6-carboxamide], for which the “% Inhibition Hela Nuclear Extracts” value in the assay on Hela nuclear extracts worked out at 3%. For the same molecule, the values for the inhibition at 10 µM at VEGFR-2 and on HDAC6 were 35% and 9%, respectively. Moreover, at HDAC6, the “Mean % inhibition HDAC6” value stood at 7%.

As to `Cc1c(C(=O)NO)sc2ncnc(Nc3ccc(NC(=O)Nc4ccccc4)cc3)c12` [Compound 7a, 1–(4-(6-(hydroxycarbamoyl)-5-methylthieno[2,3-d]pyrimidin-4-ylamino)phenyl)-3-phenylurea], the “% Inhibition Hela Nuclear Extracts” value with Hela nuclear extracts is reported as 2%. Further, at VEGFR-2, testing at 10 µM gave an inhibition of 89%. Also, at HDAC6, the “Mean % inhibition HDAC6” value is 5% and at 10 µM the inhibition was 7%.

With `COc1cccc(NC(=O)Nc2ccc(Nc3ncnc4sc(C(=O)NO)c(C)c34)cc2)c1` [Compound 7b, 1–(4-(6-(hydroxycarbamoyl)-5-methylthieno[2,3-d]pyrimidin-4-ylamino)phenyl)-3–(3-methoxyphenyl)urea], in the assay with Hela nuclear extracts, the “% Inhibition Hela Nuclear Extracts” value turned out to be 2%. Further, the inhibition at 10 µM against VEGFR-2 turned out to be 78%. Also, at HDAC6, the “Mean % inhibition HDAC6” value is 6% and at 10 µM the inhibition was 8%.

As to `Cc1c(C(=O)NO)sc2ncnc(Nc3ccc(F)c(Cl)c3)c12` [Compound 15d, 4–(3-chloro-4-fluorophenylamino)-N-hydroxy-5-methylthieno[2,3-d]pyrimidine-6-carboxamide], the “% Inhibition Hela Nuclear Extracts” value with Hela nuclear extracts worked out at 4%. The molecule also registered an inhibition at 10 µM at VEGFR-2 of 54%. In addition, on HDAC6, the “Mean % inhibition HDAC6” value was found to be 4% and the inhibition at 10 µM worked out at 7%.
